The values that follow come from patent US20100197717A1, “COMBINATION OF A 5HT7 RECEPTOR LIGAND AND AN OPIOID RECEPTOR LIGAND” (priority 2007, published 2010).

SMILES strings stand for the structures. Structures can show the parent of a compound that is named as a salt. Where two headings read alike, the source gives them in different places.

For assay [1], the target named is T1, Cloned Human Serotonin Receptor, Subtype 7 (h5HT7) (Homo sapiens, UniProt P34969).
T1 construct: purchased PerkinElmer 6120512; host or cells: CHO cells
T1 sequence (P34969 whole entry): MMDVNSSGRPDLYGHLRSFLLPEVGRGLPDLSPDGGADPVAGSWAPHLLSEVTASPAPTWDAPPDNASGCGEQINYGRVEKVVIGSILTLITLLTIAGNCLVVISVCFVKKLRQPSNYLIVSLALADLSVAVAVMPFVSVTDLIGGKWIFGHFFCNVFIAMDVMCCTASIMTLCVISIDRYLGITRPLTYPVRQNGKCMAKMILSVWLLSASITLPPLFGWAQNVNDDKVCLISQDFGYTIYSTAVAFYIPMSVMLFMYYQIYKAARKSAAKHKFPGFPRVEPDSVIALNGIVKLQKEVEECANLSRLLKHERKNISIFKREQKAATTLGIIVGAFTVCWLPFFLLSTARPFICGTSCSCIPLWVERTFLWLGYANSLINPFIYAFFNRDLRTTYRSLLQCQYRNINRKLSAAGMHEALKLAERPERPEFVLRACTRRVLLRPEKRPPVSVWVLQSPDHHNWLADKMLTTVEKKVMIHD
Briefly: Radioligand binding 5HT7. The method, then: Radioligand binding assays were performed using the Cloned Human Serotonin Receptor, Subtype 7 (h5HT7), expressed in CHO cells, coated on Flashplate (Basic FlashPlate Cat.: SMP200) from PerkinElmer (Cat.: 6120512). The protocol assay was essentially the recommended protocol in the Technical Data Sheet by PerkinEmer Life and Analytical Sciences. The Mass membrane protein/well was typically 12 μg and the Receptor/well was about 9-10 fmoles. The Flashplate were let equilibrate at room temperature for one hour before the addition of the components of the assay mixture. The binding buffer was: 50 mM Tris-HCl, pH 7.4, containing 10 mM MgCl2, 0.5 mM EDTA and 0.5% BSA. The radioligand was [^125I]LSD at a final concentration of 0.82 nM. Nonspecific binding was determined with 50 μM of Clozapine. The assay volume was 25 μl. TopSeal-A were applied onto Flashplate microplates and they were incubated at room temperature for 240 minutes in darkness. The radioactivity were quantified by liquid scintillation spectrophotometry (Wallac 1450 Microbeta Trilux) with a count delay of 4 minutes prior to counting and a counting time of 30 seconds per well. Competition binding data were analyzed by using the LIGAND program (Munson and Rodbard, LIGAND: A versatile, computerized approach for characterization of ligand-binding systems. Anal. Biochem. 107: 220-239, 1980) and assays were performed in triplicate determinations for each point.

In assay [2] the test system is Male CD1 mice. Briefly: Tail Flick Test. The format is in vivo.
The next assay deals with 5HT7 receptor (Homo sapiens, UniProt P34969). As to conditions: statement in the definitions; cited from earlier work.
Sequence of 5HT7 receptor (P34969 whole entry): as above
The target of another assay is 5-HT6 (Homo sapiens, UniProt P50406). Briefly: 5-HT6 inhibition. Format: binding. To be noted: 10^−7M; as dihydrochloride; read-out: 5-HT6 inhib. (10^−7M) (%).
Sequence of 5-HT6 (P50406 whole entry, species assumed): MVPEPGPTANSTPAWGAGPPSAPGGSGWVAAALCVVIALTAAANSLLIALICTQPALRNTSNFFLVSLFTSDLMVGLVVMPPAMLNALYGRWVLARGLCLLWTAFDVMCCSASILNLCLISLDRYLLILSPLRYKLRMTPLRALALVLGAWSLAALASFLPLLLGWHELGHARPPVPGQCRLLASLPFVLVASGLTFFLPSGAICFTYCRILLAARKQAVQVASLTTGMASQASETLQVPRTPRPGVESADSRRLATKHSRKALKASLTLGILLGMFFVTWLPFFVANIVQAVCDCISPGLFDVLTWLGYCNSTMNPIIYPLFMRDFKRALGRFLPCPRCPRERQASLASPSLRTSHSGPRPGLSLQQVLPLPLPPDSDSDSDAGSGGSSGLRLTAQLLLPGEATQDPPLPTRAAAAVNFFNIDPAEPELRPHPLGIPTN
The test system of assay [3] is Male CD1 mice. To be noted: day 5, morphine 4 mg/kg alone (vs Non-Tolerant) or + Chemical Example 1 10 mg/kg (vs morphine only).
Procedure: (§1) The mice were kept on the hot plate for no longer than 450 seconds in order to avoid the development of cutaneous lesions. The vehicle, the active substances and the inventive active substance combination to be tested were administered—sometimes in differing concentrations—by s.c. injection to different groups of mice. 0.5 hours after the administration the animals are put onto the hot plate and the time is measured until they show signs of pain, divided by Fore Paw Licking (FPL), Hind Paw Licking (HPL) and Jumping, to allow conclusions on differentiations of pain types through the different pain symptoms/signs of pain. The analgesic efficacy of the active substances or active substance combination is calculated on the basis of the values obtained for the comparison group of mice to which is only administered the vehicle (baseline). By comparing to baseline (defined as 0% analgesia) and to a failure of pain signs (defined as 100% analgesia) Percentage of analgesia was determined. In some cases based on this calculation and with different concentrations of the active substances or active substance combination ED50 values were determined.
Male CD1 Mice were divided in 2 groups, the group receiving s.c. injections of morphine in high doses to develop tolerance (hereinafter called Tolerants), and the group receiving only vehicle (called Non-Tolerants). The following treatment scheme was followed:
The mice were placed 30 minutes after injection on the hot plate heated to 50° C. The signs of pain shown were divided by Fore Paw Licking (FPL), Hind Paw Licking (HPL) and Jumping and measured/counted. The Baseline was determined based on saline injection. Significance values were determined vs. respective “non tolerant” group, the “Morphine-tolerant group” or the “Morphine-non tolerant group” with *** p<0.001 vs. respective “non tolerant” group, # # # p<0.001 vs. “Morphine-tolerant group” and α α α p<0.001 vs. “Morphine-non tolerant group” (Newman-Keuls Multiple Comparison Test post-ANOVA).
Assay [4] concerns Male CD1 mice. To be noted: day 5; morphine 4 mg/kg alone (vs Non-Tolerant) or + Chemical Example 1 10 mg/kg (vs morphine only); FIG. 12.
Procedure: Briefly, the animals (male CD1 mice) were restrained in a Plexiglas tube and placed on the tail flick apparatus (LI 7100, Letica, S. A., Spain). A noxious beam of light was focussed on the tail, and the tail flick latency was recorded automatically to the nearest 0.1 s. The intensity of the radiant heat source was adjusted to yield baseline latencies between 2 and 3 s; this intensity was never changed and any animal whose baseline latency was outside the pre-established limits was excluded from the experiments. In order to minimise injury in the animals, a cut-off time of 10 s was used. The animals received an s.c. injection of the vehicle (saline), drug or drug combination under study, and tail flick latencies were measured and are measured at 45 min after drug or vehicle administration. Baseline tail flick latencies were recorded after saline/vehicle injection. By comparing to baseline (defined as 0% analgesia) and to a failure of pain reaction/tail flick (defined as 100% analgesia) Percentage of analgesia was determined.
Male CD1 Mice were divided in 2 groups, the group receiving s.c. injections of morphine in high doses to develop tolerance (hereinafter called Tolerants), and the group receiving only vehicle (called Non-Tolerants). […]
The mice were placed 45 minutes after injection in the tail-flick apparatus. The Baseline was determined based on saline injection. […]
Assay [5] relates to Male CD1 mice. Briefly: animal or person. As to conditions: Mus musculus, sc.
Procedure: Male CD1 mice aged from 6 to 8 weeks old were used in these studies. Animals were housed in groups of five, provided with food and water ad libitum and kept in controlled laboratory conditions with the temperature maintained at 21±1° C. and light in 12 h cycles (on at 07:00 h and off at 19:00 h). Experiments were carried out in a soundproof and air-regulated experimental room. The number of mice ranged from 8 to 16 per group in each individual experiment.
All the compounds were dissolved in physiological saline and administered in a volume of 5 ml/kg of body weight through the subcutaneous (s.c.) route. When compounds were co-administered, they were injected s.c. opposite flanks of the mice. The doses of drugs refer to their salt forms.
The analgesic activity of the inventive active substance combination is determined in male CD1 following and adapting the description in the publication of G. Woolfe and A. D. MacDonald, J. Pharm.
as §1
The mark [6] stands for this setting: read-out: 5-HT7 %-Inhib. (10^−6 M).
[7] abbreviates: read-out: 5-HT7 %-Inhib. (10^−7 M).
Where [8] appears, read: read-out: 5-HT7 %-Inhib. (10^−8 M).

Regarding `COc1ccccc1-c1cccc(CCN(C)C)c1` [Chemical Example 21, [2-(2′-Methoxy-biphenyl-3-yl)-ethyl]-dimethyl-amine], in assay [1] (read-out: % Inh (10^−6 M)), the inhibition at 1 µM is 95.4%. The inhibition at 0.1 µM in assay [1] (read-out: % Inh (10^−7 M)) turned out to be 69.2%. In addition, the inhibition at 0.01 µM in assay [1] (read-out: % Inh (10^−8 M)) was found to be 20%.

Consider `Cc1cccc(S(=O)(=O)N(C)[C@H](C)CCN2CCC(C)CC2)c1.Cl` [SB-258719, (R)-3,N-Dimethyl-N-(1-methyl-3-(4-methylpiperidin-1-yl)propyl)benzene sulfonamide hydrochloride], for which the “change in the morphine effect, tail flick” value in the assay with Male CD1 mice [2] (SB-258719 10 mg/kg + varying doses of morphine s.c.) is “did not produce any significant change”. Moreover, in the assay on Male CD1 mice [2] (morphine 2 mg/kg + Chemical Example 1 10 mg/kg + SB-258719 10 mg/kg s.c. (FIG. 9C)), the “effect on potenciation of morphine analgesia exerted by Chemical Example 1, tail flick” value is “reverted”.

As to `CCN(CC)CCc1cccc(-c2c(C)cccc2C)c1` [Chemical Example 11, [2-(2′,6′-Dimethyl-biphenyl-3-yl)-ethyl]-diethyl-amine], in assay [1] (read-out: % Inh (10^−6 M)), the inhibition at 1 µM was 98.2%. The inhibition at 0.1 µM in assay [1] (read-out: % Inh (10^−7 M)) was 62.3%. Further, the inhibition at 0.01 µM in assay [1] (read-out: % Inh (10^−8 M)) is -13.7%.

As for `CN(C)CCc1cccc(-c2cnn(C)c2)c1` [Chemical Example 17, Dimethyl-{2-[3-(1-methyl-1H-pyrazol-4-yl)-phenyl]-ethyl}-amine], the inhibition at 1 µM in assay [1] (read-out: % Inh (10^−6 M)) amounted to 46%. The inhibition at 0.1 µM in assay [1] (read-out: % Inh (10^−7 M)) stood at 16.9%. Moreover, the inhibition at 0.01 µM in assay [1] (read-out: % Inh (10^−8 M)) is -1%.

With `CCCN(CCC)CCc1cccc(-c2c(C)nn(C)c2C)c1` [Chemical Example 4, Dipropyl-{2-[3-(1,3,5-trimethyl-1H-pyrazol-4-yl)-phenyl]-ethyl}-amine], the inhibition at 1 µM in assay [1] (read-out: % Inh (10^−6 M)) turned out to be 90%. The inhibition at 0.1 µM in assay [1] (read-out: % Inh (10^−7 M)) is 98.7%. The inhibition at 0.01 µM in assay [1] (read-out: % Inh (10^−8 M)) came to 48.6%.

For `Cc1cccc(C)c1-c1cccc(CCN(C)C)c1` [Chemical Example 9, [2-(2′,6′-Dimethyl-biphenyl-3-yl)-ethyl]-dimethyl-amine], the inhibition at 1 µM in assay [1] (read-out: % Inh (10^−6 M)) amounted to 105%. Also, the inhibition at 0.1 µM in assay [1] (read-out: % Inh (10^−7 M)) came to 88.9%. The inhibition at 0.01 µM in assay [1] (read-out: % Inh (10^−8 M)) was determined as 65.9%.

With `Cc1nn(C)c(C)c1-c1cccc2c1CC[C@H](N(C)Cc1ccccc1)C2` [Chemical Example F, (2S)-Benzyl-methyl-[5-(1,3,5-trimethyl-1H-pyrazol-4-yl)-1,2,3,4-tetrahydro-naphthalen-2-yl]-amine], in assay [1] (setting [6]), the inhibition at 1 µM was found to be 110%. The inhibition at 0.1 µM in assay [1] (setting [7]) stood at 44.7%. Besides, in assay [1] (setting [8]), the inhibition at 0.01 µM was found to be 16.3%.

As to `CN[C@H]1CCc2c(cccc2-c2c(C)nn(C)c2C)C1` [Chemical Example H, (2S)-Methyl-[5-(1,3,5-trimethyl-1H-pyrazol-4-yl)-1,2,3,4-tetrahydro-naphthalen-2-yl]-amine hydrochloride], the IC50 – broadly, the concentration at which inhibition is half-maximal – in assay [1] was 2.3 nM. Moreover, the inhibition at 1 µM in assay [1] (setting [6]) is 98.1%. Moreover, in assay [1] (setting [7]), the inhibition at 0.1 µM was 97.8%. The inhibition at 0.01 µM in assay [1] (setting [8]) came to 86.1%.

Regarding `CCN(CC)CCc1cccc(-c2c(C)nn(C)c2C)c1` [Chemical Example 3, Diethyl-{2-[3-(1,3,5-trimethyl-1H-pyrazol-4-yl)-phenyl]-ethyl}-amine], the inhibition at 1 µM in assay [1] (read-out: % Inh (10^−6 M)) came to 98.1%. Further, in assay [1] (read-out: % Inh (10^−7 M)), the inhibition at 0.1 µM came to 41.5%. In addition, the inhibition at 0.01 µM in assay [1] (read-out: % Inh (10^−8 M)) worked out at 4.8%.

On to `CCCN(CCC)C1CCc2cccc(O)c2C1` (stereo not shown) [8-OH-DPAT], for which the “agonist classification on the 5-HT7 receptor” value at 5HT7 receptor was “agonist”.

`Cc1nn(C)c(C)c1-c1cccc2c1CCC(N(C)C)C2` (stereo not shown) [Chemical Example K, Dimethyl-[5-(1,3,5-trimethyl-1H-pyrazol-4-yl)-1,2,3,4-tetrahydro-naphthalen-2-yl]-amine] registered an IC50 in assay [1] of 3.9 nM. Also, in assay [1] (setting [7]), the inhibition at 0.1 µM was 91.3%. Moreover, the inhibition at 0.01 µM in assay [1] (setting [8]) was found to be 38.8%.

Regarding `Cc1nn(C)c(C)c1-c1cccc(CCN(C)C)c1` [Chemical Example 1], the inhibition at 0.1 µM turned out to be 98.6% in assay [1] (read-out: % Inh (10^−7 M)) and 5.4% at 5-HT6. Besides, the inhibition at 0.01 µM in assay [1] (read-out: % Inh (10^−8 M)) worked out at 60.8%. The “effect on efficacy of a low dose of morphine, tail flick” value with Male CD1 mice [2] (1.25, 2.5, 5 or 10 mg/kg s.c. + morphine 2 mg/kg (FIG. 9B)) was “increases in a dose-dependent manner”. Moreover, the “analgesic effect per se, tail flick” value with Male CD1 mice [2] (1.25, 2.5, 5 or 10 mg/kg s.c. alone (FIG. 9B)) is given as “devoid of effect per se”.

With `CCCN(CCC)CCc1cccc(-c2ccccc2OC)c1` [Chemical Example 24, [2-(2′-Methoxy-biphenyl-3-yl)-ethyl]-dipropyl-amine], in assay [1] (read-out: % Inh (10^−6 M)), the inhibition at 1 µM is 92.4%. Also, the inhibition at 0.1 µM in assay [1] (read-out: % Inh (10^−7 M)) was determined as 37.8%. The inhibition at 0.01 µM in assay [1] (read-out: % Inh (10^−8 M)) is -1.8%.

For `COc1cccc(OC)c1-c1cccc(CCN(C)C)c1` [Chemical Example 13, [2-(2′,6′-Dimethoxy-biphenyl-3-yl)-ethyl]-dimethyl-amine], the inhibition at 1 µM in assay [1] (read-out: % Inh (10^−6 M)) amounted to 105%. Also, in assay [1] (read-out: % Inh (10^−7 M)), the inhibition at 0.1 µM came out at 60.5%. Also, the inhibition at 0.01 µM in assay [1] (read-out: % Inh (10^−8 M)) turned out to be 54.4%.

In the case of `CCCN(CCC)CCc1cccc(-c2c(C)cccc2C)c1` [Chemical Example 12, [2-(2′,6′-Dimethyl-biphenyl-3-yl)-ethyl]-dipropyl-amine], the inhibition at 1 µM in assay [1] (read-out: % Inh (10^−6 M)) came to 93.3%. Besides, the inhibition at 0.1 µM in assay [1] (read-out: % Inh (10^−7 M)) is 92.2%. Moreover, the inhibition at 0.01 µM in assay [1] (read-out: % Inh (10^−8 M)) was 43.8%.

On to `CN1CC[C@]23c4c5ccc(O)c4O[C@H]2[C@@H](O)C=C[C@H]3[C@H]1C5` [morphine], for which, in the assay with Male CD1 mice [3] (FIG. 10A), the “analgesic effect, FPL, Tolerant group” value is listed as “reduced”. Further, the “analgesic effect, HPL, Tolerant group” value in the assay on Male CD1 mice [3] (FIG. 10B) was “reduced”. The “analgesic effect, Jump, Tolerant group” value in the assay with Male CD1 mice [3] (FIG. 11) was “reduced”. Besides, the “analgesic effect, tail flick, Tolerant group” value in the assay with Male CD1 mice [4] is reported as “significantly reduced”. In addition, the ED50 – broadly, the dose that gives a 50% effect, or the effect in half of the subjects – was found to be 24 mg/kg with Male CD1 mice [5] (read-out: ED50, Fore Paw Licking (FPL)); 9.28 mg/kg in the assay on Male CD1 mice [5] (read-out: ED50, Hind Paw Licking (HPL)); 3.19 mg/kg in the assay on Male CD1 mice [5] (read-out: ED50, Jumping).

Turning to `Cc1nn(C)c(C)c1-c1cccc2c1CC[C@@H](N(C)C)C2` [Chemical Example J, (2R)-Dimethyl-[5-(1,3,5-trimethyl-1H-pyrazol-4-yl)-1,2,3,4-tetrahydro-naphthalen-2-yl]-amine hydrochloride], the inhibition at 1 µM in assay [1] (setting [6]) came to 59.6%. Also, the inhibition at 0.1 µM in assay [1] (setting [7]) amounted to 9.6%. The inhibition at 0.01 µM in assay [1] (setting [8]) is -1.8%.
